Results from patent US9498463B2, “Compound obtained from gamboge resin, and medical uses of the same” (priority 2010, dated 2016).
≈ marks a conversion by molar mass, not a printed value.

What was measured:
[1] = tested on: Human promyelocytic leukemia cell HL-60; test: cells; conditions: for IC50: HL-60, read-out: IC50 (50% inhibition concentration); for CC50: HL-60, read-out: LC50 (50% lethal concentration)
From the text: (§1) In Vitro Anti-Cancer Test
(§2) The in vitro anti-cancer test was primarily used to detect the effect of a candidate drug on cancer cell proliferation. The working principle involved therein is the ability of viable cells to shift alamarBlue (AbD Serotec, UK) from its originally non-fluorescent oxidized state (non-fluorescent, blue) to a reduced form (fluorescent, red) having fluorescence via metabolic reaction. According to the fluorescent data result generated by the alamarBlue reagent thus obtained, the proliferation of the viable cells and cell activity can be quantified for detection.
(§3) In the in vitro anti-cancer tests, a candidate drug was tested at 5 different concentrations of 0.01, 0.1, 1, 10, and 100 μg/ml, and six human cancer cell lines and a normal human cell line were used (see Table 5).

[2] = tested on: Human hepatocellular carcinoma cell HepG2; test: cells; conditions: for IC50: HepG2, read-out: IC50 (50% inhibition concentration); for CC50: HepG2, read-out: LC50 (50% lethal concentration)
From the text: as §1, §2, §3

[3] = tested on: Human colon adenocarcinoma cell HT-29; test: cells; conditions: for IC50: HT-29, read-out: IC50 (50% inhibition concentration); for CC50: HT-29, read-out: LC50 (50% lethal concentration)
From the text: as §1, §2, §3

[4] = tested on: Human umbilical venal epithelial cell (HUVEC); test: cells; conditions: Homo sapiens, HUVEC, read-out: IC50 (50% inhibition concentration)
From the text: as §1, §2, §3

[5] = tested on: Human breast adenocarcinoma cell MCF7; test: cells; conditions: Homo sapiens; for IC50: MCF7, read-out: IC50 (50% inhibition concentration); for CC50: MCF7, read-out: LC50 (50% lethal concentration)
From the text: as §1, §2, §3

[6] = tested on: Human histocytic lymphoma cell U937; test: cells; conditions: for IC50: U-937, read-out: IC50 (50% inhibition concentration); for CC50: U-937, read-out: LC50 (50% lethal concentration)
From the text: as §1, §2, §3

[7] = in vitro
From the text: as §1, §2, §3

[8] = tested on: Human lung carcinoma cell A549; test: cells; conditions: for IC50: A549, read-out: IC50 (50% inhibition concentration); for CC50: A549, read-out: LC50 (50% lethal concentration)
From the text: as §1, §2, §3

[9] = tested on: caspases; conditions: cited from earlier work

Compound	IC50 [1] [µg/mL]	CC50 [1] [µg/mL]	IC50 [2] [µg/mL]	CC50 [2] [µg/mL]	IC50 [3] [µg/mL]	CC50 [3] [µg/mL]	IC50 [4] [µg/mL]	IC50 [5] [µg/mL]	CC50 [5] [µg/mL]	IC50 [6] [µg/mL]	CC50 [6] [µg/mL]	CC50 [7] [µg/mL]	IC50 [8] [µg/mL]	CC50 [8] [µg/mL]	activator of caspases and inducer of apoptosis [9]
CC(C)=CCc1c2c(c(O)c3c1O[C@]1(C)CCC4C3C1C4(C)C)C(=O)C1=C[C@@H]3CC4C(C)(C)OC(C/C=C(/C)C(=O)O)(C3=O)[C@@]14O2 [Gh-2607-B]	0.13 (≈ 0.207 µM)	3.1 (≈ 4.93 µM)	0.31 (≈ 0.493 µM)	4 (≈ 6.36 µM)	0.3 (≈ 0.477 µM)	1 (≈ 1.59 µM)	0.07 (≈ 0.111 µM)	0.1 (≈ 0.159 µM)	0.68 (≈ 1.08 µM)	0.1 (≈ 0.159 µM)	0.25 (≈ 0.398 µM)	1.6 (≈ 2.54 µM)	0.1 (≈ 0.159 µM)	0.33 (≈ 0.525 µM)	
CC(C)=CCC[C@]1(C)C[C@H](O)c2c(O)c3c(c(CC=C(C)C)c2O1)O[C@]12C(=C[C@@H]4CC1C(C)(C)O[C@]2(C/C=C(/C)C(=O)O)C4=O)C3=O [Gh-2641-1, neogambogic acid]	0.18 (≈ 0.278 µM)	4.5 (≈ 6.96 µM)	1.7 (≈ 2.63 µM)	4.6 (≈ 7.11 µM)	2.6 (≈ 4.02 µM)	6.8 (≈ 10.5 µM)	0.54 (≈ 0.835 µM)	0.2 (≈ 0.309 µM)	3.5 (≈ 5.41 µM)	0.26 (≈ 0.402 µM)	1 (≈ 1.55 µM)	4.3 (≈ 6.65 µM)	0.15 (≈ 0.232 µM)	0.22 (≈ 0.34 µM)	
CC(C)=CCC/C(C)=C/Cc1c(O)c(CC=C(C)C)c2c(c1O)C(=O)C1=C[C@@H]3CC4C(C)(C)O[C@](C/C=C(\C)C(=O)O)(C3=O)[C@@]14O2 [Gh-2642, isogambogenic acid]	9 (≈ 14.3 µM)	32 (≈ 50.7 µM)	11 (≈ 17.4 µM)	29 (≈ 46 µM)	12 (≈ 19 µM)	42 (≈ 66.6 µM)	2.4 (≈ 3.8 µM)	3 (≈ 4.76 µM)	10 (≈ 15.9 µM)	1.3 (≈ 2.06 µM)	4.1 (≈ 6.5 µM)	11 (≈ 17.4 µM)	1.5 (≈ 2.38 µM)	4.6 (≈ 7.29 µM)	
COC(=O)/C(C)=C\CC12OC(C)(C)C3CC(C=C4C(=O)c5c(O)c6c(c(CC=C(C)C)c5OC431)OC(C)(CCC(O)C(C)(C)O)C=C6)C2=O (stereo not shown) [methyl 37,38-dihydroxy-gambogate]															activator of caspases and an inducer of apoptosis
